Tested on: 252836-082-R-J2-PDC tumor spheroids, viability
Experiment: Anticancer human tumor 252836-082-R-J2-PDC patient-derived head and neck squamous cell carcinoma cell line growth inhibition [PI3K]
Conditions: spheroids with HUVEC and MSC; for IC50: curve of first compound; for viability, T/C: stronger effect = lower value
Summary of the method: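 Multi-cell spheroids combine tumor cells with HUVEC and human MSCs, treated with targeted agents alone or with inavolisib, alpelisib, duvelisib or copanlisib. Concentrations fall in half-log steps from at or near clinical Cmax, or from 10 microM where Cmax is unknown; viability read-out.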

[1] = second compound 0.00316 µM, first compound 0.000316 µM
[2] = second compound 0.00316 µM, first compound 0.001 µM
[3] = second compound 0.00316 µM, first compound 0.00316 µM
[4] = second compound 0.00316 µM, first compound 0.01 µM
[5] = second compound 0.00316 µM, first compound 0.0316 µM
[6] = second compound 0.00316 µM, first compound 0.1 µM
[7] = second compound 0.01 µM, first compound 0.000316 µM
[8] = second compound 0.01 µM, first compound 0.001 µM
[9] = second compound 0.01 µM, first compound 0.00316 µM
[10] = second compound 0.01 µM, first compound 0.01 µM
[11] = second compound 0.01 µM, first compound 0.0316 µM
[12] = second compound 0.01 µM, first compound 0.1 µM
[13] = second compound 0.0316 µM, first compound 0.000316 µM
[14] = second compound 0.0316 µM, first compound 0.001 µM
[15] = second compound 0.0316 µM, first compound 0.00316 µM
[16] = second compound 0.0316 µM, first compound 0.01 µM
[17] = second compound 0.0316 µM, first compound 0.0316 µM
[18] = second compound 0.0316 µM, first compound 0.1 µM
[19] = second compound 0.1 µM, first compound 0.000316 µM
[20] = second compound 0.1 µM, first compound 0.001 µM
[21] = second compound 0.1 µM, first compound 0.00316 µM
[22] = second compound 0.1 µM, first compound 0.01 µM
[23] = second compound 0.1 µM, first compound 0.0316 µM
[24] = second compound 0.1 µM, first compound 0.1 µM
[25] = second compound 0.316 µM, first compound 0.000316 µM
[26] = second compound 0.316 µM, first compound 0.001 µM
[27] = second compound 0.316 µM, first compound 0.00316 µM
[28] = second compound 0.316 µM, first compound 0.01 µM
[29] = second compound 0.316 µM, first compound 0.0316 µM
[30] = second compound 0.316 µM, first compound 0.1 µM
[31] = second compound 1 µM, first compound 0.000316 µM
[32] = second compound 1 µM, first compound 0.001 µM
[33] = second compound 1 µM, first compound 0.00316 µM
[34] = second compound 1 µM, first compound 0.01 µM
[35] = second compound 1 µM, first compound 0.0316 µM
[36] = second compound 1 µM, first compound 0.1 µM
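Note: spheroids exposed to agents for seven days before readout.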
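Throughout, for viability, T/C: percent of vehicle DMSO control viability so 100% = untreated growth.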

## Cn1cnc2c(F)c(Nc3ccc(Br)cc3Cl)c(C(=O)NOCCO)cc21 + Cc1nc(NC(=O)N2CCCC2C(N)=O)sc1-c1ccnc(C(C)(C)C(F)(F)F)c1
Second compound 0.0316 µM
  IC50: > 3 µM
Second compound 0.1 µM
  IC50: 2.41 µM
Second compound 0.316 µM
  IC50: 1.46 µM
Second compound 1 µM
  IC50: 0.554 µM
Second compound 3.16 µM
  IC50: < 0.00949 µM
Second compound 10 µM
  IC50: < 0.00949 µM
Second compound 0.0316 µM, first compound 0.00949 µM
  viability, T/C: 93%
Second compound 0.0316 µM, first compound 0.03 µM
  viability, T/C: 67.1%
Second compound 0.0316 µM, first compound 0.0949 µM
  viability, T/C: 83%
Second compound 0.0316 µM, first compound 0.3 µM
  viability, T/C: 82.7%
Second compound 0.0316 µM, first compound 0.949 µM
  viability, T/C: 61.2%
Second compound 0.0316 µM, first compound 3 µM
  viability, T/C: 58.4%
Second compound 0.1 µM, first compound 0.00949 µM
  viability, T/C: 79.9%
Second compound 0.1 µM, first compound 0.03 µM
  viability, T/C: 74.5%
Second compound 0.1 µM, first compound 0.0949 µM
  viability, T/C: 73.3%
Second compound 0.1 µM, first compound 0.3 µM
  viability, T/C: 85.1%
Second compound 0.1 µM, first compound 0.949 µM
  viability, T/C: 67.9%
Second compound 0.1 µM, first compound 3 µM
  viability, T/C: 45.4%
Second compound 0.316 µM, first compound 0.00949 µM
  viability, T/C: 66.9%
Second compound 0.316 µM, first compound 0.03 µM
  viability, T/C: 68.1%
Second compound 0.316 µM, first compound 0.0949 µM
  viability, T/C: 65.2%
Second compound 0.316 µM, first compound 0.3 µM
  viability, T/C: 68.3%
Second compound 0.316 µM, first compound 0.949 µM
  viability, T/C: 55.7%
Second compound 0.316 µM, first compound 3 µM
  viability, T/C: 37.5%
Second compound 1 µM, first compound 0.00949 µM
  viability, T/C: 61.7%
Second compound 1 µM, first compound 0.03 µM
  viability, T/C: 50.1%
Second compound 1 µM, first compound 0.0949 µM
  viability, T/C: 51%
Second compound 1 µM, first compound 0.3 µM
  viability, T/C: 47.6%
Second compound 1 µM, first compound 0.949 µM
  viability, T/C: 50.1%
Second compound 1 µM, first compound 3 µM
  viability, T/C: 28.9%
Second compound 3.16 µM, first compound 0.00949 µM
  viability, T/C: 45.8%
Second compound 3.16 µM, first compound 0.03 µM
  viability, T/C: 45.6%
Second compound 3.16 µM, first compound 0.0949 µM
  viability, T/C: 32.2%
Second compound 3.16 µM, first compound 0.3 µM
  viability, T/C: 35.8%
Second compound 3.16 µM, first compound 0.949 µM
  viability, T/C: 25.8%
Second compound 3.16 µM, first compound 3 µM
  viability, T/C: 13.8%
Second compound 10 µM, first compound 0.00949 µM
  viability, T/C: 26.7%
Second compound 10 µM, first compound 0.03 µM
  viability, T/C: 29.4%
Second compound 10 µM, first compound 0.0949 µM
  viability, T/C: 25.8%
Second compound 10 µM, first compound 0.3 µM
  viability, T/C: 19.4%
Second compound 10 µM, first compound 0.949 µM
  viability, T/C: 14.2%
Second compound 10 µM, first compound 3 µM
  viability, T/C: 5.98%

## CC(C)n1nc(-c2ccc3oc(N)nc3c2)c2c(N)ncnc21 + COc1c(OCCCN2CCOCC2)ccc2c3n(c(=NC(=O)c4cnc(N)nc4)nc12)CCN3
Second compound 0.00316 µM
  IC50: 0.019 µM
Second compound 0.01 µM
  IC50: 0.0165 µM
Second compound 0.0316 µM
  IC50: 0.00333 µM
Second compound 0.1 µM
  IC50: < 0.000316 µM
Second compound 0.316 µM
  IC50: < 0.000316 µM
Second compound 1 µM
  IC50: < 0.000316 µM
[1]
  viability, T/C: 81.7%
[2]
  viability, T/C: 81.9%
[3]
  viability, T/C: 74.9%
[4]
  viability, T/C: 58.1%
[5]
  viability, T/C: 43.1%
[6]
  viability, T/C: 20.8%
[7]
  viability, T/C: 78.7%
[8]
  viability, T/C: 73.5%
[9]
  viability, T/C: 74.9%
[10]
  viability, T/C: 57.8%
[11]
  viability, T/C: 38.5%
[12]
  viability, T/C: 20.5%
[13]
  viability, T/C: 58.3%
[14]
  viability, T/C: 58.4%
[15]
  viability, T/C: 48.4%
[16]
  viability, T/C: 42.1%
[17]
  viability, T/C: 31.4%
[18]
  viability, T/C: 15.3%
[19]
  viability, T/C: 30.4%
[20]
  viability, T/C: 34.8%
[21]
  viability, T/C: 33.1%
[22]
  viability, T/C: 28.1%
[23]
  viability, T/C: 18.3%
[24]
  viability, T/C: 9.85%
[25]
  viability, T/C: 17.8%
[26]
  viability, T/C: 18.9%
[27]
  viability, T/C: 12.1%
[28]
  viability, T/C: 9.92%
[29]
  viability, T/C: 8.75%
[30]
  viability, T/C: 2.66%
[31]
  viability, T/C: 4.87%
[32]
  viability, T/C: 3.85%
[33]
  viability, T/C: 4.39%
[34]
  viability, T/C: 3.18%
[35]
  viability, T/C: 3.53%
[36]
  viability, T/C: 2.06%

## CC(=O)c1c(C)c2cnc(Nc3ccc(N4CCNCC4)cn3)nc2n(C2CCCC2)c1=O + COc1c(OCCCN2CCOCC2)ccc2c3n(c(=NC(=O)c4cnc(N)nc4)nc12)CCN3
Second compound 0.00316 µM
  IC50: > 0.1 µM
Second compound 0.01 µM
  IC50: > 0.1 µM
Second compound 0.0316 µM
  IC50: > 0.1 µM
Second compound 0.1 µM
  IC50: < 0.000316 µM
Second compound 0.316 µM
  IC50: < 0.000316 µM
Second compound 1 µM
  IC50: < 0.000316 µM
[1]
  viability, T/C: 95%
[2]
  viability, T/C: 93.1%
[3]
  viability, T/C: 85.6%
[4]
  viability, T/C: 96.3%
[5]
  viability, T/C: 87.8%
[6]
  viability, T/C: 99%
[7]
  viability, T/C: 84.7%
[8]
  viability, T/C: 81.4%
[9]
  viability, T/C: 78.5%
[10]
  viability, T/C: 84.3%
[11]
  viability, T/C: 81.1%
[12]
  viability, T/C: 83.7%
[13]
  viability, T/C: 69.5%
[14]
  viability, T/C: 60.9%
[15]
  viability, T/C: 66.9%
[16]
  viability, T/C: 56.5%
[17]
  viability, T/C: 64%
[18]
  viability, T/C: 62.6%
[19]
  viability, T/C: 37.1%
[20]
  viability, T/C: 41.2%
[21]
  viability, T/C: 37.8%
[22]
  viability, T/C: 45.5%
[23]
  viability, T/C: 41.7%
[24]
  viability, T/C: 37.5%
[25]
  viability, T/C: 18.2%
[26]
  viability, T/C: 21.1%
[27]
  viability, T/C: 20.6%
[28]
  viability, T/C: 18.7%
[29]
  viability, T/C: 21.8%
[30]
  viability, T/C: 16.6%
[31]
  viability, T/C: 4.69%
[32]
  viability, T/C: 5.36%
[33]
  viability, T/C: 5.54%
[34]
  viability, T/C: 5.58%
[35]
  viability, T/C: 6.27%
[36]
  viability, T/C: 4.95%
